System: CL097 triggered IFNα release in human whole blood
Experiment: Ex vivo human IFNα release inhibition (human whole blood assay)
Assay type: cell-based
Conditions: CL097 2 μg/mL, 3 h 30 min at 37° C.
Source text: 4.10.1. Ex Vivo Human IFNα and TNFα Release Inhibition (Human Whole Blood Assay)
The aim of the assay is to evaluate the activity of compounds of the invention on the activated TLR/IRAK-4 pathway in an ex vivo human whole blood setting. Toll-like receptors (TLRs) are pattern recognition receptors that recognize a wide variety of microbial molecules, called pathogen-associated molecular patterns (PAMPs). Human TLR7 and TLR8 recognize imidazoquinoline compounds (e.g., CL097—CAS n #1026249-18-2) and single stranded RNAs as their natural ligands. Activation of TLRs leads to the production of several cytokines (e.g., IFNα, TNFα, IL-8, IL-6) by the TLR agonist-treated cells, whereas IRAK4 leads to the production of IFNα. Cytokine release is used as readout in this assay and represents a measure for the level of inhibition of the TLR/IRAK-4 pathway by the tested compound. It should be noted that in the context of the complete organism, other sources for these cytokines exist that are not dependent on the TLR/IRAK-4 pathway, such as e.g., macrophages (upon activation of the Fcγ receptor (Yan et al., 2012)) or T cells (upon activation of the T cell receptor (Brehm et al., 2005)).
4.10.1.1. Experimental Design
Blood was collected from healthy volunteers into lithium heparin tubes by venipuncture, then gently inverted several times to prevent clotting and incubated for at least 15 min at 37° C. on a rocking mixer shaker. Then, 100 μL of blood was dispensed into polypropylene 96-well microplate and pre-incubated in duplicate with 0.3% DMSO or test compound at different concentrations (from 30 to 0.01 μM, 3-fold dilutions to get 0.3% DMSO at the final) for 15 min at 37° C. After this pre-incubation, blood was triggered with CL097 (2 μg/mL from 1 mg/mL solution in water; InvivoGen, tlrl-c97) for 3 h 30 min at 37° C. Microtubes were centrifuged at 5000×g for 10 min at 4° C. and approximately 40 μL of plasma were collected into a polystyrene 96-well plate. Plasma could be analyzed freshly, within 30 min after triggering, or frozen at −80° C. Finally, the quantification of TNFα and IFNα were performed in the plasma using AlphaLISA Kit for TNFα and IFNα according to the manufacturer's instructions and read on the Ensight (PerkinElmer).
A standard curve was created by plotting on log-log the mean […] on the y-axis against the concentration on the x-axis and a 4-parameters logistic regression (4PL) was made through the points. For each blood sample, the IFNα concentrations of the samples were determined from the fit. Data were then expressed as a percentage of inhibition (PIN) for each replicate using the formula:
With mean IFNα with CL097=mean IFNα concentration of replicate samples triggered with CL097; IFNαsample1=IFNα concentration of sample 1; mean IFNα with vehicle=mean IFNα concentration of replicate samples treated with vehicle.
Curve fitting for pIC50 determination were generated using mean PIN±sem. Graphs and pIC50 calculations were derived using Prism 5.03 software (GraphPad).

SMILES | IC50 (Homo sapiens) [nM] | IC50 [nM]
COc1cn2nc(CC(F)C(C)(C)O)cc2cc1NC(=O)c1cccn(C2CC2)c1=O (single isomer, unassigned; enantiomer a) [Compound 25, 1-cyclopropyl-N-[2-(2-fluoro-3-hydroxy-3-methyl-butyl)-6-methoxy-pyrazolo[1,5-a]pyridin-5-yl]-2-oxo-pyridine-3-carboxamide Enantiomer A] | 500 to 1000 | 
COc1cn2nc(CC(F)C(C)(C)O)cc2cc1NC(=O)c1cccn(C2CC2)c1=O (single isomer, unassigned; enantiomer b) [Compound 26, 1-cyclopropyl-N-[2-(2-fluoro-3-hydroxy-3-methyl-butyl)-6-methoxy-pyrazolo[1,5-a]pyridin-5-yl]-2-oxo-pyridine-3-carboxamide Enantiomer B] |  | 1000 to 5000
COc1cn2nc(CCC(C)(C)O)cc2cc1NC(=O)c1cccn(C)c1=O [Compound 2, N-[2-(3-hydroxy-3-methylbutyl)-6-methoxypyrazolo[1,5-a]pyridin-5-yl]-1-methyl-2-oxopyridine-3-carboxamide] | 500 to 1000 | 
COc1cn2nc(CCC(C)(C)O)cc2cc1NC(=O)c1cccc(C(F)(F)F)n1 [Compound 3, N-[2-(3-hydroxy-3-methylbutyl)-6-methoxypyrazolo[1,5-a]pyridin-5-yl]-6-(trifluoromethyl)pyridine-2-carboxamide] | 1000 to 5000 | 
CC(C)(O)CCc1cc2cc(NC(=O)c3cccc(C(F)(F)F)n3)c(C(N)=O)cn2n1 [Compound 4, 2-(3-hydroxy-3-methylbutyl)-5-[[6-(trifluoromethyl)pyridine-2-carbonyl]amino]pyrazolo[1,5-a]pyridine-6-carboxamide] | 1000 to 5000 | 
CNC(=O)c1cn2nc(CCC(C)(C)O)cc2cc1NC(=O)c1cccc(C(F)(F)F)n1 [Compound 5, 2-(3-hydroxy-3-methylbutyl)-N-methyl-5-[[6-(trifluoromethyl)pyridine-2-carbonyl]amino]pyrazolo[1,5-a]pyridine-6-carboxamide] | 1000 to 5000 | 
COc1cn2nc(CCC(C)(C)O)cc2cc1NC(=O)c1cccn(C(F)F)c1=O [Compound 7, 1-(difluoromethyl)-N-[2-(3-hydroxy-3-methyl-butyl)-6-methoxy-pyrazolo[1,5-a]pyridin-5-yl]-2-oxo-pyridine-3-carboxamide] | 1000 to 5000 | 
CCOc1cn2nc(CCC(C)(C)O)cc2cc1NC(=O)c1cccn(C(F)F)c1=O [Compound 9, 1-(difluoromethyl)-N-[6-ethoxy-2-(3-hydroxy-3-methyl-butyl)pyrazolo[1,5-a]pyridin-5-yl]-2-oxo-pyridine-3-carboxamide] | 1000 to 5000 | 
CNC(=O)c1cn2nc(C3CCN(C)CC3)cc2cc1NC(=O)c1cccc(C(F)(F)F)n1 [Compound 12, N-methyl-2-(1-methyl-4-piperidyl)-5-[[6-(trifluoromethyl)pyridine-2-carbonyl]amino]pyrazolo[1,5-a]pyridine-6-carboxamide] | 1000 to 5000 | 
CNC(=O)c1cn2nc(C3CCOCC3)cc2cc1NC(=O)c1cccc(C(F)F)n1 [Compound 15, 5-[[6-(difluoromethyl)pyridine-2-carbonyl]amino]-N-methyl-2-tetrahydropyran-4-yl-pyrazolo[1,5-a]pyridine-6-carboxamide] | > 5000 | 
CCOc1cn2nc(CCC(C)(C)O)cc2cc1NC(=O)c1cccn(C2CC2)c1=O [Compound 17, 1-cyclopropyl-N-[6-ethoxy-2-(3-hydroxy-3-methyl-butyl)pyrazolo[1,5-a]pyridin-5-yl]-2-oxo-pyridine-3-carboxamide] | 1000 to 5000 | 
CCOc1cn2nc(CCC(C)(C)O)cc2cc1NC(=O)c1cccn(C)c1=O [Compound 18, N-[6-ethoxy-2-(3-hydroxy-3-methyl-butyl)pyrazolo[1,5-a]pyridin-5-yl]-1-methyl-2-oxo-pyridine-3-carboxamide] | 1000 to 5000 | 
CNC(=O)c1cn2nc(CCC(C)(C)O)cc2cc1NC(=O)c1cccc(C(F)F)n1 [Compound 19, 5-[[6-(difluoromethyl)pyridine-2-carbonyl]amino]-2-(3-hydroxy-3-methyl-butyl)-N-methyl-pyrazolo[1,5-a]pyridine-6-carboxamide] | 500 to 1000 | 

From patent publication US20220218679A1, “NOVEL COMPOUNDS AND PHARMACEUTICAL COMPOSITIONS THEREOF FOR THE TREATMENT OF INFLAMMATORY DISORDERS” (Galapagos NV, priority 2019, published 2022)
